Entries after “also recorded” stand apart in the source; their conditions may differ.
Key:
[1] = test system: Porphyromonas gingivalis; assay: Kill assay on TSA plates (5% difibrinated blood); assay type: cell-based
Description: Porphyromonas gingivalis (a keystone pathogen in chronic periodontitis, and identified in the brains of Alzheimer's patients) is sensitive to HBCA1 and HBCA2 peptides.

[2] = test system: above-mentioned bacterial strains; assay: Spot assays on bacterial lawns and direct kill assays of synthetic peptides; assay type: cell-based
Method: The fractions were dried and reconstituted in water and spotted onto Tryptic soy agar plates that were spread with 100 μL of select bacterial grown overnight in tryptic soy broth.
We have named them HBCA1 and HBCA2.
(§1) All three peptides were tested using direct kills assays. Equal inoculums of indicated bacterial pathogens were incubated either with water (−) or 50 mg/ml of HBCA1, HBCA2 or HBCA2.C. Aliquots were spotted at T=0 min (start of incubation) and at 30 minutes post incubation (T=30 min) on LB-agar plates, and incubated at 37° C. overnight to see growth.

[3] = test system: K. pneunomiae; assay: Killing of pathogenic bacteria; assay type: cell-based, K. pneumoniae
Method: as §1

[4] = test system: S. aureus (MRSA); assay: Killing of pathogenic bacteria; assay type: cell-based
Method: as §1

[5] = test system: E. coli (EHEC); assay: Killing of pathogenic bacteria; assay type: cell-based
Method: as §1

[6] = test system: S. enteritidis; assay: Killing of pathogenic bacteria; assay type: cell-based
Method: as §1

[7] = test system: E. faecalis; assay: Killing of pathogenic bacteria; assay type: cell-based
Method: as §1

[8] = test system: L. monocytogenes; assay: Killing of pathogenic bacteria; assay type: cell-based
Method: as §1

[9] = test system: commensal Lactobacillus strains; assay: Activity against commensal strains; assay type: cell-based; conditions: strains commonly found in infant and adult gut
[10] = test system: commensal Bifidobacterium strains; assay: Activity against commensal strains; assay type: cell-based; conditions: strains commonly found in infant and adult gut
[11] = test system: indicated bacterial pathogens; assay: Direct kill assay; assay type: cell-based; conditions: 50 mg/ml
Method: as §1

[12] = test system: P. aeruginosa; assay: Direct kill assay; assay type: cell-based
Method: as §1

[13] = test system: G. vaginalis; assay: Direct kill assay on HBT bilayer Gardnerella media; assay type: cell-based, Gardnerella vaginalis
Method: When we subjected G. vaginalis to direct kill assays using HBCA1 and HBCA2, we observed that both peptides render G. vaginalis non-viable within 30 minutes, as indicated by loss of bacterial growth on HBT bilayer Gardnerella media (FIG. 9).

[14] = test system: K. pneumoniae; assay: Activity on TSA plates (FIG. 16); assay type: cell-based; conditions: 20 mg/ml and 10 mg/ml on TSA plates
Method: FIG. 16 depicts activity of HBCA2 peptide against K. pneumoniae at 20 mg/ml and 10 mg/ml on TSA plates.

| Sequence | sensitivity of P. gingivalis [1] | antibacterial activity [2] | killing of Porphyromonas gingivalis [1] | speed of loss of viability of P. gingivalis ([1]; upon mixing cells with peptide) | killing / viability of K. pneumoniae [3] | killing of S. aureus (MRSA) [4] | killing of E. coli (EHEC) [5] | killing of S. enteritidis [6] | killing of E. faecalis [7] | killing of L. monocytogenes [8] | activity against commensal Lactobacillus strains [9] | activity against commensal Bifidobacterium strains [10] | relative activity of the peptides in direct kill assays [11] | killing of P. aeruginosa [12] | loss of viability of P. aeruginosa ([12]; 50 mg/ml, T=0 min) | killing of Gardnerella vaginalis [13] | relative potency against K. pneumoniae [14] |
| --- | --- | --- | --- | --- | --- | --- | --- | --- | --- | --- | --- | --- | --- | --- | --- | --- | --- |
| TVYTKGRVMPVLKSPTIPFFDPQI (listed as Homo sapiens) [HBCA1] | sensitive | showed antibacterial activity |  |  |  |  |  |  |  |  |  |  |  |  |  |  |  |
| RVMPVLKSPTIP (listed as Homo sapiens) [HBCA2] | sensitive | showed antibacterial activity | kills | rapid killing; also recorded: rapidly lose viability right at 0 minutes | kills | kills | kills | kills | kills | kills | no detected activity | no detected activity | more potent in its activity than the larger HBCA1 peptide | kills | rapidly lost (while mixing at T0) | kills |  |
| RVRPKLKSPRIP [HBCA2.4] |  |  |  |  |  |  |  |  |  |  |  |  |  |  |  |  | most potent of the HBCA peptides |

Reference: US20240010693A1, “PEPTIDES FROM HUMAN B-CASEIN THAT HAVE ANTI-BACTERIAL ACTIVITY” (priority 2020, published 2024)
